Reference: PMC10367051, “Comprehensive Mechanistic View of the Hydrolysis of Oxadiazole-Based Inhibitors by Histone Deacetylase 6 (HDAC6)” (ACS Chemical Biology, 2023)

Legend:
Assay type in all cases: biochemical
HDAC8 = molecular target: T1, HDAC8 (Homo sapiens, UniProt Q9BY41); test: Fluorometric HDAC inhibition assay, HDAC8; conditions: purified human protein; Boc-[Lys-TFA]-AMC substrate 10 μM; 15 min preincubation
T1 construct: TwinStrep-FLAG-HALO (N, cleaved yes); made in house; host or cells: HEK293/T17
T1 sequence (Q9BY41 1-377): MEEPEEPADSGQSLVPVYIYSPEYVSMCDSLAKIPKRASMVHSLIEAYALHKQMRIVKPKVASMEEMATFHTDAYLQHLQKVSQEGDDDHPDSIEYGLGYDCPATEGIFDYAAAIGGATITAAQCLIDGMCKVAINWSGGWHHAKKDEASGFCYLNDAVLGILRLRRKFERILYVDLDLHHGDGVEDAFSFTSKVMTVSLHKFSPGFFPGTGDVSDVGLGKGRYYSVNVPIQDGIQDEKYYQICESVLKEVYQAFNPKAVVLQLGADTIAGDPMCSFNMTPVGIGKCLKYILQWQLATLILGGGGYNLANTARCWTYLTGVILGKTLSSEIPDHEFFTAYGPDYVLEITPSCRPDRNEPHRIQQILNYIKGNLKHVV
Description: (§1) Large-scale expression of recombinant human HDACs was carried out as described previously.[32],[37] Briefly, HEK293/T17 cells were transiently transfected with expression pMM222 plasmids comprising N-terminally tagged (TwinStrep-FLAG-HALO tag; Figure S1) HDAC genes using linear poly(ethyleneimine) (PEI, Polysciences Inc.). Cells were harvested three days post-transfection, and cell pellets were resuspended in the lysis buffer (100 mM Tris-HCl, 10 mM NaCl, 5 mM KCl, 2 mM MgCl2, and 10% glycerol at pH 8.0). Cells were disrupted by sonication, cell lysates were cleared by centrifugation, and soluble fusion proteins were first purified by Streptactin affinity chromatography (IBA). For all HDACs but HDACs 1, 10, and 11, the N-terminal tag was cleaved off overnight by the addition of TEV protease (10:1 HDAC/TEV ratio). Size-exclusion chromatography on a Superose 6 column (GE Healthcare Bio-Sciences; running buffer 30 mM HEPES, 140 mM NaCl, 10 mM KCl, 3% glycerol, and 0.25 mM TCEP) was used as the final purification step for all HDAC constructs.
(§2) Optimized fluorometric assays were used to determine inhibition constants of studied compounds against individual HDAC isoforms as described previously.[32] Briefly, reactions were performed in the activity buffer comprising 50 mM HEPES, 140 mM NaCl, and 10 mM KCl at pH 7.4 supplemented with 1 mg mL^–1 bovine serum albumin (BSA), 1 mM tris(2-carboxyethyl)phosphine (TCEP), 10 μM substrates, and optimized concentrations of HDACs. The Ac-Gly-Ala-[Lys-Ac]-7-amino-methylcoumarylamide (AMC) substrate was used to profile HDACs 1, 2, 3, and 6; Boc-[Lys-TFA]-7-amino-methylcoumarylamide was used for HDACs 4, 5, 7, 8, and 9 (both substrates: Bachem); fluorescein-labeled N8-acetylspermidine was used for HDAC10;[32] and an internally quenched TNFα-derived peptide derivative was used for HDAC11.[39] Deacetylation reactions were monitored either by high-performance liquid chromatography (HPLC) (HDAC10) or by quantification of released AMC (λex/λem = 365/440 nm) using a CLARIOstar plate reader (BMG Labtech GmbH).

HDAC6 = molecular target: T2, HDAC6 (Homo sapiens, UniProt Q9UBN7); test: Fluorometric HDAC inhibition assay, HDAC6; conditions: for IC50: purified human protein, Ac-Gly-Ala-[Lys-Ac]-AMC substrate 10 μM, 15 min preincubation; for fold more potent compared to the hydrazide product 4: HDAC6 potency ratio
T2 construct: TwinStrep-FLAG-HALO (N, cleaved yes); made in house; host or cells: HEK293/T17
T2 sequence (Q9UBN7 1-1215): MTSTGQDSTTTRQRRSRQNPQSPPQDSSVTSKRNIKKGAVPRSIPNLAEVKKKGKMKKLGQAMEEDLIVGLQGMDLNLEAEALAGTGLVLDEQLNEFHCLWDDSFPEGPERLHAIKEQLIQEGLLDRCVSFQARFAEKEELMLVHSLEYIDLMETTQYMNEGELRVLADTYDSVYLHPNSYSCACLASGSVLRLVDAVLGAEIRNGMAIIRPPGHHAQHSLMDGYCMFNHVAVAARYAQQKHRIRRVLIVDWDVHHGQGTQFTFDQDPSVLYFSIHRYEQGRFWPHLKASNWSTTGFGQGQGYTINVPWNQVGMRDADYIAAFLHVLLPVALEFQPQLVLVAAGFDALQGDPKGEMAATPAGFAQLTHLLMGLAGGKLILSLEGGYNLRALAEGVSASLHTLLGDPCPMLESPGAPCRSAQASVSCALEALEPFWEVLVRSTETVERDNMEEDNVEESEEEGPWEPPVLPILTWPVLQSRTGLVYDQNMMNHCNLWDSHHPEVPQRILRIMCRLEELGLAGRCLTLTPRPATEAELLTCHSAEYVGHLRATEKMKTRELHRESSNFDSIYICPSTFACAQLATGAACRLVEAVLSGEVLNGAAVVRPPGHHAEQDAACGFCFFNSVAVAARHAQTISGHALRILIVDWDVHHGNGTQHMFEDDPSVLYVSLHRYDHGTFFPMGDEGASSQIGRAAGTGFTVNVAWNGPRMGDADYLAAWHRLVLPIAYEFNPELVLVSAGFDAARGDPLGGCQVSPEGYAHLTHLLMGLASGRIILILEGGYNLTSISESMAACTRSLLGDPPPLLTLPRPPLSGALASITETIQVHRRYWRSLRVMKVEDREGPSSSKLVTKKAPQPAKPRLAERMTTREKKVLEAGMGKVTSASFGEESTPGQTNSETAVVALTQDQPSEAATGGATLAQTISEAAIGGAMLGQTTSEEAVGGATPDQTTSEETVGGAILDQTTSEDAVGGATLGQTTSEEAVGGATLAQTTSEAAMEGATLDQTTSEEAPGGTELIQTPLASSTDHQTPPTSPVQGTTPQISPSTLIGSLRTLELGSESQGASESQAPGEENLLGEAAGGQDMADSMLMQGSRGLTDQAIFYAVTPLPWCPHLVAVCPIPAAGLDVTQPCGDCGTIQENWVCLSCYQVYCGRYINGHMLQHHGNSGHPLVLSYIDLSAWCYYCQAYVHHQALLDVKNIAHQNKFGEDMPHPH
Description: as §1, §2

HDAC2 = molecular target: T3, HDAC2 (Homo sapiens, UniProt Q92769); test: Fluorometric HDAC inhibition assay, HDAC2; conditions: purified human protein; Ac-Gly-Ala-[Lys-Ac]-AMC substrate 10 μM; 15 min preincubation
T3 construct: TwinStrep-FLAG-HALO (N, cleaved yes); made in house; host or cells: HEK293/T17
Description: as §1, §2

T3 sequence (Q92769 whole entry): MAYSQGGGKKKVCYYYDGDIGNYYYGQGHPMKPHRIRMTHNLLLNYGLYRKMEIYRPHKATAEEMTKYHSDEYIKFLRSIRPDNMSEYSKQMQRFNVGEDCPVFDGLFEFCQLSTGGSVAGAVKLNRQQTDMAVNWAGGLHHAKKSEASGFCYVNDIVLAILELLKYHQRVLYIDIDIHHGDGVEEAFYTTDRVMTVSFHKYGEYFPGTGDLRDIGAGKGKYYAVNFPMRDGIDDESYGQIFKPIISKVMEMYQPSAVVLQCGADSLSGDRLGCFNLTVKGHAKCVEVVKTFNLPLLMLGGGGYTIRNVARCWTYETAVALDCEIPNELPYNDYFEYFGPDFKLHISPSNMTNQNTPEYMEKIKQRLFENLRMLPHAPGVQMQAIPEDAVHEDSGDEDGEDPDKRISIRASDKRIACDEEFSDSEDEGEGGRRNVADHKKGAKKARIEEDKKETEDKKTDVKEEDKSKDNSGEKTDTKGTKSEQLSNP

Compound | IC50 (HDAC8) | IC50 (HDAC6) | IC50 (HDAC2) | fold more potent compared to the hydrazide product 4 (HDAC6)
CS(=O)(=O)N(Cc1ccc(C(=O)NN)cn1)c1cccc(Cl)c1 [compound 4] | > 20 µM | 2.16 ± 0.392 µM | > 20 µM | –
CS(=O)(=O)N(Cc1ccc(-c2nnc(C(F)F)o2)cn1)c1cccc(Cl)c1 [compound 8] | > 20 µM | – | > 20 µM | approximately 1000 fold
CS(=O)(=O)N(Cc1ccc(-c2nnc(C(F)(F)F)o2)cn1)c1cccc(Cl)c1 [compound 7] | > 20 µM | 0.0146 ± 0.008 µM | 17.4 µM | ~150 fold
CS(=O)(=O)N(Cc1ccc(C(=O)NNC(=O)C(F)F)cn1)c1cccc(Cl)c1 [compound 6] | > 20 µM | 14.5 µM | – | –
CS(=O)(=O)N(Cc1ccc(C(=O)NNC(=O)C(F)(F)F)cn1)c1cccc(Cl)c1 [compound 5] | > 20 µM | 10.8 µM | > 20 µM | –
